Results as given in paper PMC10894281, “Kinetic characterization of human mRNA guanine-N7 methyltransferase” (Scientific Reports, 2024).
Blank lines part the entries; values can stand above or below the molecule they belong to.

Columns and labels:
Assay type in all cases: biochemical
[1] = biological target: T1, RNA cap guanine-N7 methyltransferase (hRNMT) (Homo sapiens, UniProt O43148); test: radiometric scintillation proximity methyltransferase assay (3H-SAM, biotinylated RNA); product inhibition; set-up: gene RNMT; RNMT (1–476), full length
[2] = biological target: T1, RNA cap guanine-N7 methyltransferase (hRNMT); test: steady-state kinetics, apparent Km by radiometric scintillation proximity assay; set-up: gene RNMT; RNMT (1–476), full length; also catalytic domain RNMT (123–476); settings: read-out: Km^app
[3] = biological target: T1, RNA cap guanine-N7 methyltransferase (hRNMT); test: radiometric scintillation proximity methyltransferase assay (3H-SAM, biotinylated RNA); set-up: gene RNMT; RNMT (1–476), full length

T1 sequence (O43148 whole entry, the tested form may be a part): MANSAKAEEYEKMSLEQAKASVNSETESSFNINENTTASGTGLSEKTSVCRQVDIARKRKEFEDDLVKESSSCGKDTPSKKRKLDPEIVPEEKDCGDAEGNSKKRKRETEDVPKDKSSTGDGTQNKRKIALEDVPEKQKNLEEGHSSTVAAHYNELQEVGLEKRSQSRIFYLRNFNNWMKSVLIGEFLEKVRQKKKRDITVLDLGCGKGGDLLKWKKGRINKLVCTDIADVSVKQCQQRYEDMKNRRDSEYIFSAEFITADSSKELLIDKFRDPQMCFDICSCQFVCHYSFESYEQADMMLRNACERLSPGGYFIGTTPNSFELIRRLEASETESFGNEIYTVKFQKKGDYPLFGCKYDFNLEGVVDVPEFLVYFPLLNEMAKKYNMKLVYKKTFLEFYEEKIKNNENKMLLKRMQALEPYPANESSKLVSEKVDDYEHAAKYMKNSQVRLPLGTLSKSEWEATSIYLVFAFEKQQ

Compound: Nc1ncnc2c1ncn2[C@@H]1O[C@H](CSCC[C@H](N)C(=O)O)[C@@H](O)[C@H]1O [SAH]
IC50 [1]: 389 ± 110 nM

Km [2]: 0.19 ± 0.038 µM
Compound: C[S+](CC[C@H](N)C(=O)[O-])C[C@H]1O[C@@H](n2cnc3c(N)ncnc32)[C@H](O)[C@@H]1O (stereo partly shown) [SAM]

Compound: Nc1ncnc2c1ncn2[C@@H]1O[C@H](C[C@@H](N)CC[C@H](N)C(=O)O)[C@@H](O)[C@H]1O [Sinefungin]
IC50 [3]: 3 ± 0.6 nM

IC50 ([3]; read-out: IC50): 5 ± 0.4 nM
Compound: Cc1ccc(C(=O)Nc2ccc(S(=O)(=O)O)c3cc(S(=O)(=O)O)cc(S(=O)(=O)O)c23)cc1NC(=O)c1cccc(NC(=O)Nc2cccc(C(=O)Nc3cc(C(=O)Nc4ccc(S(=O)(=O)O)c5cc(S(=O)(=O)O)cc(S(=O)(=O)O)c45)ccc3C)c2)c1 [Suramin]
